Results as given in patent US20060111368A1, “Phosphodiesterase inhibitor” (Kyowa Hakko Kogyo Co., Ltd., priority 2002, published 2006).
Where a name gives a salt, the structure may show the parent alone.

Assays:
[1] = test system: 6-hydroxydopamine (6OHDA)-treated rats; assay: Test for activity to hyperkinesia in 6-hydroxydopamine (6OHDA)-treated rats; format: in vivo, rat; conditions: 50 mg/kg test compound intraperitoneally, then L-DOPA 30 mg/kg and benserazide 7.5 mg/kg orally; vehicle group 1,298±193; 180° rotation = 1 count
Experimental: Test for Activity to Hyperkinesia in 6-hydroxydopamine (6OHDA)-Treated Rats
When the unilateral nigrostriatal pathway is lesioned with 6-OHDA, sensitivity of dopamine receptors in the striatum on the lesioned side is increased. When a dopamine activity enhancing substance such as L-DOPA is administered thereto, a rotating behavior takes place on the side opposite to the lesioned side. This animal model has been long positioned as an excellent test model of Parkinson's disease, and has been used for research of therapeutic agent for Parkinson's disease [Neurol. Neurobiol. vol. 33, p. 1 (1987)]. […]
After withdrawal of the administration of apomorphine for 14 days, L-DOPA and bensetazide were orally administered to the rats at doses of 100 mg/kg and 25 mg/kg respectively to induce hyperkinesia. At this time, the number of rotations was measured for 60 minutes immediately after the administration. […]
After 7 days from the dividing into groups, the number of rotations for 60 minutes was measured by similar manner as that of above-mentioned. […] Immediately after the administration, 30 mg/kg of L-DOPA and 7.5 mg/kg of benserazide were orally administered to A and B groups, and the number of rotations for 60 minutes was measured every 5 minutes. […]

[2] = test system: MDA-MB-231 (human breast cancer cell); assay: Cell growth inhibitory activity (MTT-type colorimetric assay); format: cell-based; conditions: MDA-MB-231, 72 h, 10 μmol/L, 3 days of culture
Experimental: Cell Growth Inhibitory Activity
Cell growth inhibitory activity of compound 12 was examined on MDA-MB-231 (human breast cancer cell: American Type Culture Collection) using an in-vitro cell growth assay [3-(4,5-dimethylthiazol-2-yl)-2,5-diphenyl tetrazolium bromide (MTT)]-type calorimetric assay [Leukemia, vol. 7, p. 1637, (1993)].
MDA-MB-231 (2.5×10^4 cells/mL, 270 μL) was inoculated on a 48-well plate, and cultured overnight. In the culture, Leibovitz's L-15 (Gibco) containing. 10% fetal calf serum (Hi-Clone), 0.05 units/mL of penicillin (Gibco) and 0.05 μg/mL of streptomycin (Gibco) was used as a culture medium. 30 μL of compound 12 dissolved in the same medium containing 0.1% dimethyl sulfoxide (DMSO; Wako Pure Chemical Industries) was added to each well. After 3 days of culture, 30 μL of MTT (Dojin Kagaku Kenkyusho, adjusted to a concentration of 5 mg/mL with PBS) was added to each well. After 4 hours of culture, 900 μL of DMSO was added to dissolve the cells. The cell solution was moved to a 96-well plate in amounts of 200 μL each, and fluorescence intensity OD590-630was measured with an automated microplate reader EL340 (Biotech Instruments). […] (medium containing 0.1% DMSO alone was added) and OD (blank) is fluorescence intensity (OD590-630) of the same medium containing 0.1% DMSO. […]

Cc1c(-c2ccc(-c3ccccc3CN3CCOCC3)cc2)nc2ccc(F)cc2c1CO [Compound 12, 6-Fluoro-4-hydroxymethyl-3-methyl-2-(2′-morpholinomethylbiphenyl-4-yl)quinoline dihydrochloride]
total number of rotations for 60 minutes [1]: 48±20 | inhibition at 10 µM [2]: 39%
